Data as given in paper PMC11257039, “VCP activator reverses nuclear proteostasis defects and enhances TDP-43 aggregate clearance in multisystem proteinopathy models” (The Journal of Clinical Investigation, 2024).
“And” between values parts separate entries of the source, which are not always exact repeats. Equal entries are not always repeated.

Molecular target: T1, WT VCP + Ufd1/Nploc4 (Mus musculus, UniProt Q01853)
T1 construct: in the full-length recombinant VCP; His (N); made in house; host or cells: E. coli (VCP: BL21-CodonPlus (DE3)-RIL; UFD1 and NPLOC4: E. coli (DE3), purified by the MD Anderson core)
T1 sequence (Q01853 whole entry): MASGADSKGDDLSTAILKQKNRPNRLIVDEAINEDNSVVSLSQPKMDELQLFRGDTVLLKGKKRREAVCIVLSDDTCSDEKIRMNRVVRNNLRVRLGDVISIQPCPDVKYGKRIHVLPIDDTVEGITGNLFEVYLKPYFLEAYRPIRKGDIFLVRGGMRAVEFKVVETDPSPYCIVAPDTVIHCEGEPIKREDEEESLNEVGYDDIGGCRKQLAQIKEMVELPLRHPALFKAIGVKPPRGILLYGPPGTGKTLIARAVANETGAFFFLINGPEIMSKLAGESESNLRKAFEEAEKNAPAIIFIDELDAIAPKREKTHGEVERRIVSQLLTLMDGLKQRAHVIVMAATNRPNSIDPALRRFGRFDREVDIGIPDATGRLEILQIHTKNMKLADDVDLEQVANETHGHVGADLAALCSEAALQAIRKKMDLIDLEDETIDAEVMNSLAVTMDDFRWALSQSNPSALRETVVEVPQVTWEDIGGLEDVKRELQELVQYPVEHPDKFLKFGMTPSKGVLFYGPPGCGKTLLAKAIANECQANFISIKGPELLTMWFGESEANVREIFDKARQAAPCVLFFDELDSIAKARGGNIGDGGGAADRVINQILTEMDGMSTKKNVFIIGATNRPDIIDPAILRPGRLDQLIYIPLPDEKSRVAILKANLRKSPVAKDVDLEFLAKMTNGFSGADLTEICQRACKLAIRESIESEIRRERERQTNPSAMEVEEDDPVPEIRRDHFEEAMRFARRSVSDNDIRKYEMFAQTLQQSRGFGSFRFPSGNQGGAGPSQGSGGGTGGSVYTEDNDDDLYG
T1 sequence (Q92890 whole entry partner): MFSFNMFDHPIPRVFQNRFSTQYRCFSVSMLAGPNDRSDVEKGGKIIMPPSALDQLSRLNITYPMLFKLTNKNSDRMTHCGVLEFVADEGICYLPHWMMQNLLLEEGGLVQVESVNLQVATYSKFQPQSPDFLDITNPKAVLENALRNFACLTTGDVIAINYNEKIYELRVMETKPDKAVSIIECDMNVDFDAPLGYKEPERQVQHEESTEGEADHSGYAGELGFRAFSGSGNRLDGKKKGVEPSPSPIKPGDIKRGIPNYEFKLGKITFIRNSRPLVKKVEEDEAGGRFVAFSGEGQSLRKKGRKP
T1 sequence (Q8TAT6 whole entry partner): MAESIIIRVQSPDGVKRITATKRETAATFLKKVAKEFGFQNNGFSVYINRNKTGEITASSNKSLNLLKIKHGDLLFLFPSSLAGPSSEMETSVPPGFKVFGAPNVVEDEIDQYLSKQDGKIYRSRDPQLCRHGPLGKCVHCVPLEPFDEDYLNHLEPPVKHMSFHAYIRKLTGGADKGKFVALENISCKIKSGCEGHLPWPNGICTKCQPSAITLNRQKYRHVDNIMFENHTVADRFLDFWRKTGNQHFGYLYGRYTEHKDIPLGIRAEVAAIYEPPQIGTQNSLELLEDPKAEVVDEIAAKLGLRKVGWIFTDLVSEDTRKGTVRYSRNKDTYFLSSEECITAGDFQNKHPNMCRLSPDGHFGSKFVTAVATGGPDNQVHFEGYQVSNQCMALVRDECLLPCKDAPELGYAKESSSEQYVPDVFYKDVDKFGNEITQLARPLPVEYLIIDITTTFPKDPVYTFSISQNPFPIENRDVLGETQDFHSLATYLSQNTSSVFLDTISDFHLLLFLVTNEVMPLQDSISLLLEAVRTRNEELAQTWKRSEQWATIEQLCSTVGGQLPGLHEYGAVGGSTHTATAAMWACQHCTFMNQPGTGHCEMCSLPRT
Test: Kinase-Glo ATPase assay, WT VCP with UFD1/NPLOC4 (UN)
Format: biochemical
Settings: for ATP consumed: WT VCP with UN
Method in brief: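 Mouse VCP (50 nM), alone or with 50 nM UFD1/NPLOC4, was incubated 1 h at 25 °C with 62.5 μM ATP and a range of compound concentrations in HEPES pH 7.5, 100 mM NaCl, 10 mM MgCl2, 2% DMSO. Remaining ATP was read by Kinase-Glo luminescence. Dose data were fit to a 3-parameter curve; ATP-varied data were fit to Michaelis-Menten.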

**Q.** With `COCCNC(=O)NC(=O)COC(=O)c1cc([N+](=O)[O-])ccc1Sc1nc(C)cs1` [UP109] as the compound, how does the “change in EC50 with UN compared to without UN” value read?
**A.** The value was “non-significant decreases”.

**Q.** What about the “change in maximum percent activity with UN compared to without UN” value of the same compound?
**A.** The value was “significantly decreased”.

**Q.** What about the EC50 (WT VCP + Ufd1/Nploc4, 1:1 molar ratio) of the same compound?
**A.** The EC50 was 13.4 µM.

**Q.** And the “ATP consumed” value (1.56 μM compound)?
**A.** Its value is 1.207 nmol and 1.374 nmol and 1.037 nmol.

**Q.** And the “ATP consumed” value (3.13 μM compound)?
**A.** Its value is 1.252 nmol and 1.505 nmol and 1.198 nmol.

**Q.** And the “ATP consumed” value (6.25 μM compound)?
**A.** The value was 1.448 nmol and 1.727 nmol and 1.392 nmol.

**Q.** What about the “ATP consumed” value (12.5 μM compound) of the same compound?
**A.** Its value is 1.655 nmol and 1.932 nmol and 1.557 nmol.

**Q.** And the “ATP consumed” value (25 μM compound)?
**A.** Its value is 1.893 nmol and 2.050 nmol and 1.818 nmol.

**Q.** What about the “ATP consumed” value (50 μM compound) of the same compound?
**A.** The value was 2.078 nmol and 2.217 nmol and 1.927 nmol.

**Q.** And the “ATP consumed” value (100 μM compound)?
**A.** Its value is 2.107 nmol and 2.355 nmol and 2.018 nmol.

**Q.** And the “ATP consumed” value (200 μM compound)?
**A.** Its value is 1.978 nmol and 2.301 nmol and 2.081 nmol.
